# Test results from patent US20190271703A1, “BIOMARKERS AND TREATMENTS FOR METASTATIC CANCER” (DUKE UNIVERSITY, priority 2016, published 2019).
# System: Pro-N-cadherin-positive and pro-N-cadherin-negative SUM159 sorted cells
# Experiment: Clonogenic assay on pro-N-cadherin-sorted cells
# Type: cell-based
# Details: docetaxel 50, 75, 100, 150 nM for 48 h; pro-N-cadherin positive vs negative population
# Protocol: Pro-N-cadherin-positive and pro-N-cadherin-negative SUM159 sorted cells were exposed to the indicated docetaxel concentrations and surviving fraction was determined in a clonogenic assay. Mean# colonies from three wells (+/−SEM) was determined for each cell population.
# Pro-N-cadherin-positive and Pro-N-cadherin-negative populations were sorted from untreated SUM159 cells, seeded into 6 well plates ([…]) at varying cell densities, and incubated at 37° C., 5% C02 overnight. The next day, culture medium was removed and treatments were added [no treatment, Docetaxel (50 nM, 75 nM, 100 nM and 150 nM]. After 48 h, treatments were removed, cells were washed with HBSS, and fresh culture medium (lacking drug) was added. Every three days, culture medium was changed and plates were examined for colony formation. To stain colonies, plates were fixed in 10% Acetone/10% Methanol solution for 10 min. Colonies were stained with 2% Crystal Violet for 30 minutes. The plates are then washed with water and allowed to air dry. Plates were imaged on GelCount and colonies were counted with Image J.
structure (smiles),measurement,value
CC(=O)O[C@@]12CO[C@@H]1C[C@H](O)[C@@]1(C)C(=O)[C@H](O)C3=C(C)[C@@H](OC(=O)[C@H](O)[C@@H](NC(=O)OC(C)(C)C)c4ccccc4)C[C@@](O)([C@@H](OC(=O)c4ccccc4)[C@H]21)C3(C)C [docetaxel],surviving fraction (relative resistance of sorted populations),significantly more resistant
